Measured values taken from US9481654B2, “Compositions and methods for inhibition of the JAK pathway” (Rigel Pharmaceuticals, Inc., priority 2006, dated 2016).
Structures can show the parent of a compound that is named as a salt.

Tested on: IL-4 stimulated CD23 upregulation in human Ramos B cells (JAK-1/JAK-3, Stat-6)
Experiment: Assay for Ramos B-Cell Line Stimulated with IL-4 (CD23 upregulation, FACS)
Assay type: cell-based
Conditions: Table III Example 3
From the text: One means of assaying for such inhibition is detection of the effect of the 2,4-pyrimidinediamine compounds on the upregulation of downstream gene products. In the Ramos/IL4 assay, B-cells are stimulated with the cytokine Interleukin-4 (IL-4) leading to the activation of the JAK/Stat pathway through phosphorylation of the JAK family kinases, JAK1 and JAK3, which in turn phosphorylate and activate the transcription factor Stat-6. […] To study the effect of inhibitors (e.g., the 2,4-substituted pyrimindinediamine compounds described herein) on the JAK1 and JAK3 kinases, human Ramos B cells are stimulated with human IL-4. 20 to 24 hours post stimulation, cells are stained for upregulation of CD23 and analyzed using flow cytometry (FACS).
B-cells stimulated with cytokine Interleukin-4 (IL-4) activate the JAK/Stat pathway through phosphorylation of the JAK family kinases, JAK-1 and JAK-3, which in turn phosphorylate and activate the transcription factor Stat-6. […] To study the effect of inhibitors on the JAK family kinases, human Ramos B cells are stimulated with human IL-4.
Cells were maintained at a density of 3.5×10^5. The day before the experiment, Ramos B-cells were diluted to 3.5×10^5 cells/mL to ensure that they were in a logarithmic growth phase.
Cells were spun down and suspended in RPMI with 5% serum. 5×10^4 cells were used per point in a 96-well tissue culture plate. Cells were pre-incubated with compound or DMSO (Sigma-Aldrich, St. Louis, Mo., Cat No. D2650) vehicle control for 1 hour in a 37° C. incubator. Cells were then stimulated with IL-4 (Peprotech Inc., Rocky Hill, N.J., Cat No. 200-04) for a final concentration of 50 units/mL for 20-24 hours. […] Detection was performed using a BD LSR I System Flow Cytometer, purchased from Becton Dickinson Biosciences of San Jose, Calif.

SMILES	IC50 [µM]
CCC(=O)NS(=O)(=O)c1cccc(Nc2ncc(F)c(Nc3ccc(CNS(=O)(=O)C4CC4)cc3)n2)c1 [Compound I-57, N4-(4-cyclopropylsulfonylaminomethyl)phenyl-5-fluoro-N2-(3-propionylaminosulfonyl)phenyl-2,4-pyrimidinediamine]	12.3
CCC(=O)NS(=O)(=O)c1cccc(Nc2ncc(F)c(Nc3ccc(CN(C(=O)CC)S(=O)(=O)C4CC4)cc3)n2)c1 [Compound I-58, N4-[4-(N-cyclopropylsulfonyl-N-propionyl)aminomethyl]phenyl-5-fluoro-N2-(3-propionylaminosulfonyl)phenyl-2,4-pyrimidinediamine]	11.1
CCC(=O)NS(=O)(=O)c1cc(Nc2ncc(F)c(Nc3ccc(CNS(=O)(=O)C4CC4)cc3)n2)ccc1C [Compound I-59, N4-(4-cyclopropylsulfonylaminomethyl)phenyl-5-fluoro-N2-(4-methyl-3-propionylaminosulfonyl)phenyl-2,4-pyrimidinediamine]	6.5
CCC(=O)NS(=O)(=O)c1cc(Nc2ncc(F)c(Nc3ccc(CN(C(=O)CC)S(=O)(=O)C4CC4)cc3)n2)ccc1C [Compound I-60, N4-[4-(N-cyclopropylsulfonyl-N-propionyl)aminomethyl]phenyl-5-fluoro-N2-(4-methyl-3-propionylaminosulfonyl)phenyl-2,4-pyrimidinediamine]	7.08
CCC(=O)NS(=O)(=O)c1ccc(Nc2ncc(C)c(Nc3ccc(CN(C(=O)CC)S(=O)(=O)C4CC4)cc3)n2)cc1 [Compound I-77, N4-[4-(N-cyclopropylsulfonyl-N-propionyl)aminomethyl]phenyl-5-methyl-N2-(4-propionylaminosulfonyl)phenyl-2,4-pyrimidinediamine]	1.23
CCC(=O)NS(=O)(=O)c1ccc(Nc2ncc(C)c(Nc3ccc(CN(C(=O)CC)S(=O)(=O)CC)cc3)n2)cc1 [Compound I-91, N4-[4-(N-ethylsulfonyl-N-propionyl)aminomethyl]phenyl-5-methyl-N2-(4-propionylaminosulfonyl)phenyl-2,4-pyrimidinediamine]	1.29
CCC(=O)NS(=O)(=O)c1cccc(Nc2ncc(C)c(Nc3cccc(CN(C(=O)CC)S(=O)(=O)C4CC4)c3)n2)c1 [Compound I-93, N4-[3-(N-cyclopropylsulfonyl-N-propionyl)aminomethyl]phenyl-5-methyl-N2-(3-propionylaminosulfonyl)phenyl-2,4-pyrimidinediamine]	2.81
CCOC(=O)N(CC)S(=O)(=O)c1cccc(Nc2ncc(C)c(Nc3cccc(CNS(=O)(=O)C4CC4)c3)n2)c1 [Compound I-130, N4-(3-cyclopropylsulfonylaminomethyl)phenyl-N2-[3-(N-ethoxycarbonyl-N-ethyl)aminosulfonyl]phenyl-5-methyl-2,4-pyrimidinediamine]	0.544
Cc1cnc(Nc2cccc(S(=O)(=O)NC(=O)CN)c2)nc1Nc1cccc(CNS(=O)(=O)C2CC2)c1 [Compound I-131, N2-[3-N-(2-amino-1-oxoethyl)aminosulfonyl]phenyl-N4-(3-cyclopropylsulfonylaminomethyl)phenyl-5-methyl-2,4-pyrimidinediamine]	0.557
Cc1cnc(Nc2cccc(S(=O)(=O)NC(=O)[C@@H](N)Cc3ccccc3)c2)nc1Nc1cccc(CNS(=O)(=O)C2CC2)c1 [Compound I-132, N2-[3-N-(L-Phe)aminosulfonyl]phenyl-N4-(3-cyclopropylsulfonylaminomethyl)phenyl-5-methyl-2,4-pyrimidinediamine hydrogen chloride salt]	0.594
Cc1cnc(Nc2cccc(S(=O)(=O)NC(=O)[C@@H](N)Cc3ccccc3)c2)nc1Nc1cccc(CNS(=O)(=O)C2CC2)c1 [Compound I-134, N2-[3-N-(L-Phe)aminosulfonyl]phenyl-N4-(3-cyclopropylsulfonylaminomethyl)phenyl-5-methyl-2,4-pyrimidinediamine]	0.751
CCC(=O)NS(=O)(=O)c1cccc(Nc2ncc(C)c(Nc3cccc(CNS(=O)(=O)C4CC4)c3)n2)c1 [Compound I-136, N4-(3-cyclopropylsulfonylaminomethyl)phenyl-5-methyl-N2-(3-propionylaminosulfonyl)phenyl-2,4-pyrimidinediamine]	1.63
Cc1cnc(Nc2cccc(S(=O)(=O)N[C@H](C(=O)O)C(C)C)c2)nc1Nc1cccc(CNS(=O)(=O)C2CC2)c1 [Compound I-138, N2-[3-N-(L-Val)aminosulfonyl]phenyl-N4-(3-cyclopropylsulfonylaminomethyl)phenyl-5-methyl-2,4-pyrimidinediamine]	2.38
Cc1cnc(Nc2cccc(S(=O)(=O)NC(=O)[C@H](Cc3ccccc3)NC(=O)OCc3ccccc3)c2)nc1Nc1cccc(CNS(=O)(=O)C2CC2)c1 [Compound I-139, N2-[3-N-(Cbz-L-Phe)aminosulfonyl]phenyl-N4-(3-cyclopropylsulfonylaminomethyl)phenyl-5-methyl-2,4-pyrimidinediamine]	3.32
Cc1cnc(Nc2cccc(S(=O)(=O)NC(=O)CNC(=O)OC(C)(C)C)c2)nc1Nc1cccc(CNS(=O)(=O)C2CC2)c1 [Compound I-140, N2-{3-N-[2-(t-butoxycarbonylamino)-1-oxoethyl]aminosulfonyl}phenyl-N4-(3-cyclopropylsulfonylaminomethyl)phenyl-5-methyl-2,4-pyrimidinediamine]	3.94

Same assay, conditions: Table III Example 3, sodium salt

SMILES	IC50 [µM]
CCC(=O)NS(=O)(=O)c1cccc(Nc2ncc(F)c(Nc3ccc(CNS(=O)(=O)C4CC4)cc3)n2)c1 [Compound I-61, N4-(4-cyclopropylsulfonylaminomethyl)phenyl-5-fluoro-N2-(3-propionylaminosulfonyl)phenyl-2,4-pyrimidinediamine sodium salt]	18.9
CCC(=O)NS(=O)(=O)c1cccc(Nc2ncc(F)c(Nc3ccc(CN(C(=O)CC)S(=O)(=O)C4CC4)cc3)n2)c1 [Compound I-62, N4-[4-(N-cyclopropylsulfonyl-N-propionyl)aminomethyl]phenyl-5-fluoro-N2-(3-propionylaminosulfonyl)phenyl-2,4-pyrimidinediamine sodium salt]	10.7
CCC(=O)NS(=O)(=O)c1cc(Nc2ncc(F)c(Nc3ccc(CNS(=O)(=O)C4CC4)cc3)n2)ccc1C [Compound I-63, N4-(4-cyclopropylsulfonylaminomethyl)phenyl-5-fluoro-N2-(4-methyl-3-propionylaminosulfonyl)phenyl-2,4-pyrimidinediamine sodium salt]	9.45
CCC(=O)NS(=O)(=O)c1cc(Nc2ncc(F)c(Nc3ccc(CN(C(=O)CC)S(=O)(=O)C4CC4)cc3)n2)ccc1C [Compound I-64, N4-[4-(N-cyclopropylsulfonyl-N-propionyl)aminomethyl]phenyl-5-fluoro-N2-(4-methyl-3-propionylaminosulfonyl)phenyl-2,4-pyrimidinediamine sodium salt]	4.27
CCC(=O)NS(=O)(=O)c1ccc(Nc2ncc(C)c(Nc3ccc(CNS(=O)(=O)C4CC4)cc3)n2)cc1 [Compound I-88, N4-(4-cyclopropylsulfonylaminomethyl)phenyl-5-methyl-N2-(4-propionylaminosulfonyl)phenyl-2,4-pyrimidinediamine sodium salt]	0.0599
CCC(=O)NS(=O)(=O)c1ccc(Nc2ncc(C)c(Nc3ccc(CN(C(=O)CC)S(=O)(=O)CC)cc3)n2)cc1 [Compound I-92, N4-[4-(N-ethylsulfonyl-N-propionyl)aminomethyl]phenyl-5-methyl-N2-(4-propionylaminosulfonyl)phenyl-2,4-pyrimidinediamine sodium salt]	0.96
CCC(=O)NS(=O)(=O)c1cccc(Nc2ncc(C)c(Nc3cccc(CN(C(=O)CC)S(=O)(=O)C4CC4)c3)n2)c1 [Compound I-94, N4-[3-(N-cyclopropylsulfonyl-N-propionyl)aminomethyl]phenyl-5-methyl-N2-(3-propionylaminosulfonyl)phenyl-2,4-pyrimidinediamine sodium salt]	2.5
Cc1cnc(Nc2cccc(S(=O)(=O)NC(=O)[C@H](Cc3ccccc3)NC(=O)OCc3ccccc3)c2)nc1Nc1cccc(CNS(=O)(=O)C2CC2)c1 [Compound I-135, N2-[3-N-(Cbz-L-Phe)aminosulfonyl]phenyl-N4-(3-cyclopropylsulfonylaminomethyl)phenyl-5-methyl-2,4-pyrimidinediamine sodium salt]	1
CCC(=O)NS(=O)(=O)c1cccc(Nc2ncc(C)c(Nc3cccc(CNS(=O)(=O)C4CC4)c3)n2)c1 [Compound I-137, N4-(3-cyclopropylsulfonylaminomethyl)phenyl-5-methyl-N2-(3-propionylaminosulfonyl)phenyl-2,4-pyrimidinediamine sodium salt]	1.91
Cc1cnc(Nc2cccc(S(=O)(=O)NC(=O)CNC(=O)OC(C)(C)C)c2)nc1Nc1cccc(CNS(=O)(=O)C2CC2)c1 [Compound I-141, N2-{3-N-[2-(t-butoxycarbonylamino)-1-oxoethyl]aminosulfonyl}phenyl-N4-(3-cyclopropylsulfonylaminomethyl)phenyl-5-methyl-2,4-pyrimidinediamine sodium salt]	4.71
